US20070060558A1 (PALUMED S.A., priority 2004, published 2007)
≈ marks a conversion by molar mass, not a printed value. Like-named read-outs stand apart in the source and are kept apart here.

Experiments:
M. catarrhalis CIP73.21T = experiment: Antibacterial activity (MIC/MBC); format: cell-based; conditions: Moraxella catarrhalis
[1] = tested on: S. pneumoniae PSSP CIP 6.92; experiment: Antibacterial activity (MIC/MBC); format: cell-based; conditions: Streptococcus pneumoniae, CIP6
[2] = tested on: Staphylococcus aureus MSSA CIP 4.83; experiment: Antibacterial activity (MIC/MBC); format: cell-based; conditions: for MBC: read-out: MBC
[3] = tested on: two strains of penicillin-resistant Streptococcus pneumoniae PRSP (CIP 104471 and a clinical isolate); experiment: Antibacterial activity (MIC/MBC), summary in text; format: cell-based; conditions: S. pneumoniae PRSP (CIP 104471 and a clinical isolate)
[4] = tested on: E. faecalis VRE CIP 104676; experiment: Antibacterial activity (MIC/MBC); format: cell-based, Enterococcus faecalis; conditions: Enterococcus faecalis, E. faecalis VRE CIP 104676
H. influenzae CIP 102514 = experiment: Antibacterial activity (MIC/MBC); format: cell-based, Haemophilus influenzae; conditions: Haemophilus influenzae, CIP102514
[5] = tested on: S. pneumoniae PRSP clinical isolate; experiment: Antibacterial activity (MIC/MBC); format: cell-based, Streptococcus pneumoniae; conditions: Streptococcus pneumoniae; for MIC: PRSP
[6] = Stability in solution at pH 1 (HPLC purity over time); format: physicochemical; conditions: for Purity of the hybrid molecules (as a percentage) as a function of time (hours): pH 1, 37° C.
Experimental: The stability of the aminoquinoline-cephalosporin_hybrid molecules given as examples was determined in solution at 37° C., at physiological pH (pH 7, phosphate buffer/acetonitrile, 75/25 v/v) and at acidic pH (pH 1, 0.1 M HCl/ethanol, 70/30 v/v) by high pressure liquid chromatography coupled to a UV-visible detector (Beckman Coulter ODS C18 column, 5 μm, 4.6×250 mm; eluents: A: 0.1% TFA, B: CH3CN/H2O 90/10 0.1% TFA, gradient: from 10% to 100% of B in 30 minutes, and then 100% of B for 10 minutes, flow rate 1 mL/minutes, λ=254 nm, volume injected: 10 μL).

[7] = tested on: Staphylococcus aureus MSSA 53.154; experiment: Murine experimental septicaemia, in vivo efficacy; set-up: species or system mice; conditions: sc, mice, subcutaneously at 1 and 6 h post infection, survival on day 9, hybrid molecules formulated in water as their sodium salt, read-out: ED50
Experimental: Experimental septicaemia was induced in mice as follows. Briefly, male Swiss OF1 mice (IFFA CREDO-Charles River) weighing 18 to 20 grams were infected intraperitoneally with 0.5 mL of a bacterial suspension containing 8.5×10^7 cfu of Staphylococcus aureus MSSA 53.154 (Institut Pasteur). The hybrid molecules were administered subcutaneously at 1 and 6 h post infection. Control and treatment groups at each dose were composed of seven mice. All the infected but untreated control mice died within 9 days. The 50% effective dose (ED50) values were calculated by a computerized program (GraphPad) from the survival rates on day 9 after infection.

[8] = tested on: S. pneumoniae PRSP CIP 104471; experiment: Antibacterial activity (MIC/MBC); format: cell-based, Streptococcus pneumoniae; conditions: Streptococcus pneumoniae; for MIC: read-out: MIC
S. pyogenes CIP 56.41T = experiment: Antibacterial activity (MIC/MBC); format: cell-based, Streptococcus pyogenes; conditions: Streptococcus pyogenes, CIP56, S. pyogenes CIP 56.41T; for MIC: read-out: MIC
Oral toxicity in mice = format: in vivo; conditions: counted on day 30
Experimental: The test compound: PA 1046 (example 5) was emulsified in a mixture of Tween 80/methylcellulose in water (0.5% of Tween 80, 0.6% of methylcellulose and 98.9% of water) at different concentrations. The emulsion was administered orally to 6-week-old female Swiss CD1 mice (Janvier) on day 0 and on day 2. The number of survival mice was counted on day 30.

[9] = tested on: Human lung fibroblast cells (ATCC CCL-171); experiment: Cytotoxicity (MTT) assay; conditions: human, 18 hr
Experimental: Cellular toxicity was measured by a colorimetric assay that makes use of the tetrazolium salt, MTT. Human lung fibroblast cells (ATCC CCL-171) were plated in 96-well plates at 10^4 cells per well and incubated under 5% CO2 at 37° C. for 24 hr to allow adherence of cells to the plate. Test compounds were prepared as a stock solution at 1 mg/mL in 1% DMSO/water and diluted with water for the serial dilutions (500-7.8 μg/mL). Cells underwent a 18 hr treatment under 5% CO2 at 37° C. with experimental drugs. Corresponding controls received either no drug treatment or treatment with SDS (sodium dodecyl sulfate). The optical density of each sample was read on a microplate spectrophotometer reader at 600 nm and cell survival was expressed as a fraction of that of untreated controls. A drug is said cytotoxic when this fraction is ≦−30%

[10] = S. aureus CIP 4.83, without serum (Table VI)
[11] = Staphylococcus aureus, S. aureus CIP 4.83, +50% human serum, read-out: MIC in the presence of human serum
[12] = Staphylococcus aureus, S. aureus MSSA CIP 4.83
[13] = Staphylococcus aureus, S. aureus MSSA CIP 4.83, read-out: MIC
[14] = +50% human serum, read-out: MIC in the presence of human serum
[15] = without serum (Table VI), read-out: MIC

| Compound | MBC (M. catarrhalis CIP73.21T) [µg/mL] | MIC (M. catarrhalis CIP73.21T) [µg/mL] | MBC [1] [µg/mL] | MIC [1] [µg/mL] | MIC [2, 10] [µg/mL] | MIC [2, 11] [µg/mL] | MBC [2, 12] [µg/mL] | MIC [2, 13] [µg/mL] | MBC [4] [µg/mL] | MBC [5] [µg/mL] | MIC [5, 14] [µg/mL] | MIC ([5]; read-out: MIC) [µg/mL] | MIC [5, 15] [µg/mL] | ED50 [7] [mg/kg] | MBC [8] [µg/mL] | MIC [8] [µg/mL] | MBC (S. pyogenes CIP 56.41T) [µg/mL] | MIC (S. pyogenes CIP 56.41T) [µg/mL] | further results |
| --- | --- | --- | --- | --- | --- | --- | --- | --- | --- | --- | --- | --- | --- | --- | --- | --- | --- | --- | --- |
| CO/N=C(\C(=O)N[C@@H]1C(=O)N2C(C(=O)O)=C(CSc3nc(=O)c(=O)[nH]n3C)CS[C@H]12)c1csc(N)n1 [Ceftriaxone, reference compound] | 0.0015 (≈ 0.0027 µM) | < 0.01 | 0.006 (≈ 0.0108 µM) | 0.006 (≈ 0.0108 µM) | 0.20 (≈ 0.361 µM) | 25 | > 50 | 0.2 (≈ 0.361 µM) | 50 (≈ 90.2 µM) | 0.78 (≈ 1.41 µM) | 12.5 | 0.39 (≈ 0.703 µM) | 0.78 (≈ 1.41 µM) | 0.09 | 0.39 (≈ 0.703 µM) | 0.05 (≈ 0.0902 µM) | 0.006 (≈ 0.0108 µM) | 0.006 (≈ 0.0108 µM) | MIC [3]: 0.05 µg/mL (≈ 0.0902 µM); MIC ([4]; read-out: MIC): 1.56 µg/mL (≈ 2.81 µM); MBC (H. influenzae CIP 102514; H. influenzae CIP 102514, read-out: MBC): 1.56 µg/mL (≈ 2.81 µM); MIC (H. influenzae CIP 102514; H. influenzae CIP 102514, read-out: MIC): < 0.001 µg/mL; half-life ([6]; 0.1 M HCl/ethanol solution, pH 1 in solution at 37° C.): < 2 h; Purity of the hybrid molecules (as a percentage) as a function of time (hours) ([6]; time 0 h): 100%; Purity of the hybrid molecules (as a percentage) as a function of time (hours) ([6]; time 1 h): 67%; Purity of the hybrid molecules (as a percentage) as a function of time (hours) ([6]; time 2 h): 46%; Purity of the hybrid molecules (as a percentage) as a function of time (hours) ([6]; time 4 h): 21%; Purity of the hybrid molecules (as a percentage) as a function of time (hours) ([6]; time 6 h): 4%; time until practically totally degraded ([6]; pH 1 in solution at 37° C.): less than 6 hr |
| CC(=O)OCC1=C(C(=O)O)N2C(=O)[C@@H](NC(=O)CNc3ccnc4cc(Cl)ccc34)[C@H]2SC1 [PA 1046, (6R,7R)-3-Acetoxymethyl-7-[2-(7-chloroquinolin-4-ylamino)-acetylamino]-8-oxo-5-thia-1-aza-bicyclo[4.2.0]oct-2-ene-2-carboxylic acid] | 0.78 (≈ 1.59 µM) | 0.78 (≈ 1.59 µM) | 0.012 (≈ 0.0244 µM) | 0.012 (≈ 0.0244 µM) | 0.2 (≈ 0.407 µM) | 0.78 | > 50 | 0.2 (≈ 0.407 µM) | 50 (≈ 102 µM) | 0.1 (≈ 0.204 µM) | 1.56 | 0.05 (≈ 0.102 µM) | 0.2 (≈ 0.407 µM) | 0.04 | 0.025 (≈ 0.0509 µM) | 0.006 (≈ 0.0122 µM) | 0.003 (≈ 0.00611 µM) | 0.003 (≈ 0.00611 µM) | Survival (%) (Oral toxicity in mice; 100 mg/kg orally on day 0 and day 2, mice): 5/5 (100%); Survival (%) (Oral toxicity in mice; 200 mg/kg orally on day 0 and day 2, mice): 5/5 (100%); MBC (H. influenzae CIP 102514): 25 µg/mL (≈ 50.9 µM); % of survival cells compared to the untreated controls ([9]; 7.8 μg/mL): −5.6%; % of survival cells compared to the untreated controls ([9]; 15.6 μg/mL): −8.3%; % of survival cells compared to the untreated controls ([9]; 31.2 μg/mL): −5.6%; % of survival cells compared to the untreated controls ([9]; 62.5 μg/mL): −9.0%; % of survival cells compared to the untreated controls ([9]; 125 μg/mL): −14.1%; % of survival cells compared to the untreated controls ([9]; 250 μg/mL): −17.8%; % of survival cells compared to the untreated controls ([9]; 500 μg/mL): −18.1% |
